One data set has as its system HL60. Nature of the data set: cells. As to the method:
(§1) 10^4 cells per well were seeded in 96-well culture plates with or without one of the test compounds. Various concentrations for the test compound were examined. […] The drug concentration resulting in total growth inhibition (TGI) is determined when Ti=Tz.
(§2) Cells were seeded in a 96-well flat-bottomed plate (2,500 to 3,000 cells per well). […] After being incubated at 37° C. for 2 h, the supernatant was removed and 200 μl/well of DMSO were added to dissolve the remaining MTT dye. The absorbance at 570 nm in each well was determined using a plate reader.

In another data set the test system is NB4. The data set is described as follows: cells. As to the method: as §1, §2
The test system of another data set is U937. The data set is described as follows: cells. As to the method: as §1, §2
In another data set the test system is K562. The data set is described as follows: cells. The method, then:
as §1, §2

The subject of the next data set is Kasumi-1. The data set is described as follows: MTT cell viability assay, Kasumi-1. The class given is cell-based. In general terms: Tetrazolium dyes change colour on reduction, which living cells bring about.
Data set [1] relates to A549 (non-small cell lung cancer). The data set is described as follows: SRB assay, A549. The class given is cell-based, Human. Particulars: A549 cells, 48 h. The method, then: (§3) Human cancer A549 (non-small cell lung cancer), MDA-MB-231 (estrogen-independent breast cancer), Hep 3B (hepatoma), and HA22T (hepatoma) cells were seeded in 96-well plates in medium with 5% FBS. After 24 h, cells were fixed with 10% trichloroacetic acid (TCA) to represent cell population at the time of compound addition (T0). After additional incubation of DMSO or test compound for 48 h, cells were fixed with 10% TCA and SRB at 0.4% (w/v) in 1% acetic acid was added to stain cells. Unbound SRB was washed out by 1% acetic acid and SRB bound cells were solubilized with 10 mM Trizrna base. The absorbance was read at a wavelength of 515 nm. Using the absorbance measurements of time zero (T0), the control group (C), and the cell growth in the presence of the compound (Ti), the percentage growth was calculated at each of the compound concentrations levels.

In data set [2] the test system is MDA-MB-231 (estrogen-independent breast cancer). Nature of the data set: SRB assay, MDA-MB-231. The class given is cell-based. The settings on record: Homo sapiens, MDA-MB-231 cells, 48 h. As to the method: as §3
For another data set, the system named is PC-3 cells. Nature of the data set: Western blot analysis. It is filed as cell-based. Particulars: PC-3 cells, 1, 2.5, or 5 μM, 48 hours. The method, then: PC-3 cells treated with a test compound at 1, 2.5, or 5 μM in RPMI 1640 supplemented with 10% FBS for 48 hours. The cells were collected and sonicated. Protein concentrations in the resultant lysates were determined by a Bradford protein assay kit (Bio-Rad, Hercules, Calif.). The protein lysate, containing the same amount of proteins, were subjected to 10% SDS-polyacrylarnide gel (10%) electrophoresis. The proteins on the gel were then transferred onto an Immobilon-nitrocellulose membrane (Millipore, Bellerica, Mass.) in a semi-dry transfer cell. The transblotted membrane was washed twice with tris-buffered saline containing 0.1% Tween 20 (TBST). After being blocked with TBST containing 5% nonfat milk for 40 min, the membrane was incubated with a primary antibody specific to Acetyl-H3 (antibody obtained from Upstate Biotechnology, Inc., Lake Placid, N.Y.), H3 (Upstate Biotechnology), Acetyl α-tubulin (Sigma-Aldrich, St. Louis, Mo.), phospho-Akt (Serine 473) (Cell Signaling Technologies, Danvers, Mass.), Akt (Cell Signaling Technologies), Acetyl p53 (Santa Cruz Biotechnology, Santa Cruz, Calif.), p53 (Santa Cruz Biotechnology), p21 (Santa Cruz Biotechnology), or α-tubulin (Sigma-Aldrich, St. Louis, Mo.) (1:3000 dilution) in TBST/1% nonfat milk at 4 overnight. The membrane was washed three times with TBST for a total of 15 min and then incubated with a goat anti-rabbit or anti-mouse IgG antibody conjugated with horseradish (diluted 1:3000) for 1 h at room temperature. After being washed for at least three times with TBST, the signal intensity for each protein band was determined.

The next data set has as its system Hep 3B (hepatoma). Nature of the data set: SRB assay, Hep 3B. It is filed as cell-based. The settings on record: Homo sapiens, Hep3B, Hep-3B cells, 48 h, read-out: Hep-3B liver GI50. The method, then:
as §3
Background: Sulforhodamine B stains cellular protein and so reports cell mass.

For another data set, the system named is HA22T (hepatoma). Nature of the data set: SRB assay, HA22T. It is filed as cell-based, Human. Particulars: HA22T cells, 48 h, read-out: HA22T liver GI50. As to the method:
as §3

Setting [3] is: HL60 leukemia cells, MTT, 48 or 72 hr.
The mark [4] stands for this setting: NB4 leukemia cells, MTT, 48 or 72 hr.
[5] abbreviates: U937 leukemia cells, MTT, 48 or 72 hr.
Setting [6] is: K562 leukemia cells, MTT, 48 or 72 hr.
The mark [7] stands for this setting: Kasumi-1 leukemia cells, MTT, 48 or 72 hr.

Where two headings read alike, the source gives them in different places.

By GI50 is commonly meant the concentration that inhibits growth by half. By TGI is commonly meant the concentration giving total growth inhibition. Read a high TGI as less potent growth arrest. For the molecule `Nc1ccn([C@@H]2O[C@H](CO)[C@@H](O)[C@@H]2O)c(=O)n1` [Ara-C, reference compound], the GI50 is 445 nM with HL60 (setting [3]); 448 nM in the data set with NB4 (setting [4]); 46.6 nM in the data set on U937 (setting [5]); greater than 10000 nM in the data set with K562 (setting [6]); greater than 10000 nM in the data set with Kasumi-1 (setting [7]). Besides, the TGI in the data set on HL60 (setting [3]) was 4344.3 nM; in the data set with NB4 (setting [4]) it was 2324.0 nM; in the data set with U937 (setting [5]), 109.7 nM; in the data set with K562 (setting [6]), greater than 10000 nM; in the data set on Kasumi-1 (setting [7]), greater than 10000 nM. Besides, the CC50 was 7320 nM in the data set on NB4 (read-out: LC50, NB4 leukemia cells, MTT, 48 or 72 hr); 665 nM in the data set on U937 (read-out: LC50, U937 leukemia cells, MTT, 48 or 72 hr); greater than 10000 nM in the data set with K562 (read-out: LC50, K562 leukemia cells, MTT, 48 or 72 hr); greater than 10000 nM in the data set with Kasumi-1 (Kasumi-1 leukemia cells, MTT, 48 or 72 hr, read-out: LC50 (the source's name)).

`O=C(C=Cc1ccc2c(ccn2S(=O)(=O)c2ccccc2)c1)NO` [Compound 3, 3-(1-Benzenesulfonyl-1H-indol-5-yl)-N-hydroxy-acrylamide]: the GI50 in data set [1] (Homo sapiens) was found to be 960 nM; in data set [2] it was 480 nM; in the data set with HL60 (Homo sapiens, HL-60) it was 242 nM; with NB4 (Homo sapiens, NB-4), 223 nM; in the data set on U937 (Homo sapiens, U-937) it was 162 nM; in the data set with K562 (Homo sapiens, K562), 9020 nM. Also, the GI50 came to 410 nM in the data set on Hep 3B (hepatoma); 96.6 nM in the data set with Kasumi-1 (Homo sapiens, Kasumi-1 leukemia cells, MTT, 48 or 72 hr); 1150 nM with HA22T (hepatoma) (Homo sapiens). Moreover, the TGI in the data set on HL60 (setting [3]) is recorded as 535.8 nM; in the data set on NB4 (setting [4]), 500.9 nM; with U937 (setting [5]), 440.0 nM; with K562 (setting [6]), greater than 10000 nM; in the data set with Kasumi-1 (setting [7]), 393.0 nM. The CC50 in the data set with NB4 (Homo sapiens, NB-4, read-out: LC50) is 779 nM; with U937 (Homo sapiens, U-937, read-out: LC50), 718 nM; in the data set with K562 (Homo sapiens, K562, read-out: LC50) it was greater than 10000 nM; in the data set with Kasumi-1 (Homo sapiens, Kasumi-1 leukemia cells, MTT, 48 or 72 hr, read-out: LC50 (the source's name)), 694 nM. Also, in the data set on PC-3 cells, the H3 expression entry is given as “upregulated”. For the same molecule, the histone deacetylation entry in the data set with PC-3 cells is recorded as “inhibited”. Also, the tubulin acetylation entry in the data set on PC-3 cells is “upregulated”.

For `COc1ccc(S(=O)(=O)n2ccc3cc(C=CC(=O)NO)ccc32)cc1` [Compound 4, N-hydroxy-3-[1-(4-methoxy-benzenesulfonyl)-1H-indol-5-yl]-acrylamide], the GI50 in [1] (Homo sapiens) stood at 1310 nM; in data set [2], 750 nM; in the data set with Hep 3B (hepatoma), 550 nM; in the data set on HA22T (hepatoma) (Homo sapiens) it was 1560 nM.

Turning to `O=C(C=Cc1ccc2c(ccn2S(=O)(=O)c2ccc(F)cc2)c1)NO` [Compound 5, 3-[1-(4-fluoro-benzenesulfonyl)-1H-indol-5-yl]-N-hydroxy-acrylamide], the GI50 in [1] (Homo sapiens) amounted to 1590 nM; in data set [2], 660 nM; in the data set with Hep 3B (hepatoma) it was 640 nM; in the data set with HA22T (hepatoma) (Homo sapiens), 2300 nM.

Turning to `O=C(C=Cc1ccc2c(ccn2S(=O)(=O)c2ccc([N+](=O)[O-])cc2)c1)NO` [Compound 6, N-hydroxy-3-[1-(4-nitro-benzenesulfonyl)-1H-indol-5-yl]-acrylamide], the GI50 is 2120 nM in [1] (Homo sapiens), 750 nM in data set [2], 560 nM in the data set with Hep 3B (hepatoma) and 1980 nM in the data set with HA22T (hepatoma) (Homo sapiens).

Take `Nc1ccc(S(=O)(=O)n2ccc3cc(C=CC(=O)NO)ccc32)cc1` [Compound 7, 3-[1-(4-Amino-benzenesulfonyl)-1H-indol-5-yl]-N-hydroxy-acrylamide]: the GI50 (in data set [1] (Homo sapiens); in data set [2]; in the data set on Hep 3B (hepatoma); with HA22T (hepatoma) (Homo sapiens)) was greater than 10000 nM throughout.

Take `COc1ccc(S(=O)(=O)n2ccc3cc(C=CC(=O)NO)ccc32)cc1OC` [Compound 8, 3-[1-(3,4-dimethoxy-benzenesulfonyl)-1H-indol-5-yl]-N-hydroxy-acrylamide]: the GI50 is 930 nM in data set [1] (Homo sapiens), 370 nM in data set [2], 360 nM in the data set with Hep 3B (hepatoma) and 930 nM in the data set with HA22T (hepatoma) (Homo sapiens).

`COc1ccc(S(=O)(=O)N2CCc3cc(C=CC(=O)NO)ccc32)cc1` [Compound 13, N-hydroxy-3-[1-(4-methoxy-benzenesulfonyl)-2,3-dihydro-1H-indol-5-yl]-acrylamide]: the GI50 in data set [1] (Homo sapiens) is 320 nM; in data set [2], 160 nM; in the data set on Hep 3B (hepatoma), 140 nM; in the data set on HA22T (hepatoma) (Homo sapiens) it was 540 nM.

For the molecule `O=C(C=Cc1ccc2c(c1)CCN2S(=O)(=O)c1ccc(F)cc1)NO` [Compound 14, 3-[1-(4-fluoro-benzenesulfonyl)-2,3-dihydro-1H-indol-5-yl]-N-hydroxy-acrylamide], the concentration for 50% growth inhibition (GI50) in data set [1] (Homo sapiens) was 600 nM; in data set [2] it was 370 nM; with Hep 3B (hepatoma), 250 nM; in the data set with HA22T (hepatoma) (Homo sapiens) it was 1200 nM.

Consider `O=C(C=Cc1ccc2c(c1)CCN2S(=O)(=O)c1ccc([N+](=O)[O-])cc1)NO` [Compound 15, N-hydroxy-3-[1-(4-nitro-benzenesulfonyl)-2,3-dihydro-1H-indol-5-yl]-acrylamide], for which the 50% growth inhibitory concentration (GI50) in data set [1] (Homo sapiens) came to 800 nM; in [2], 450 nM; in the data set with Hep 3B (hepatoma), 280 nM; in the data set with HA22T (hepatoma) (Homo sapiens), 740 nM.

For `Nc1ccc(S(=O)(=O)N2CCc3cc(C=CC(=O)NO)ccc32)cc1` [Compound 16, 3-[1-(4-amino-benzenesulfonyl)-2,3-dihydro-1H-indol-5-yl]-N-hydroxy-acrylamide], the GI50 (in data set [1] (Homo sapiens); in data set [2]; in the data set with Hep 3B (hepatoma); in the data set on HA22T (hepatoma) (Homo sapiens)) was greater than 10000 nM each time.

On to `COc1ccc(S(=O)(=O)N2CCc3cc(C=CC(=O)NO)ccc32)cc1OC` [Compound 17, 3-[1-(3,4-dimethoxy-benzenesulfonyl)-2,3-dihydro-1H-indol-5-yl]-N-hydroxy-acrylamide], for which the GI50 in [1] (Homo sapiens) was 320 nM; in data set [2] it was 190 nM; in the data set on Hep 3B (hepatoma), 160 nM; in the data set on HA22T (hepatoma) (Homo sapiens), 620 nM.

`O=C(CCCCCCC(=O)Nc1ccccc1)NO` [SAHA, reference compound]: the GI50 in data set [1] was 2370 nM; with HL60 (setting [3]), 455 nM; in the data set on NB4 (setting [4]) it was 303 nM; with U937 (setting [5]) it was 590 nM; in the data set with K562 (setting [6]) it was greater than 10000 nM; in the data set with HA22T (hepatoma) it was 2240 nM. Moreover, the TGI in the data set on HL60 (setting [3]) was 811.9 nM; in the data set with NB4 (setting [4]), 615.8 nM; with U937 (setting [5]), 2006.9 nM; in the data set with K562 (setting [6]), greater than 10000 nM; in the data set on Kasumi-1 (setting [7]), 604.75 nM. Besides, the CC50 in the data set on NB4 is 928 nM; in the data set with U937, 5850 nM; in the data set with K562, greater than 10000 nM; in the data set on Kasumi-1, 917 nM. Besides, the H3 expression result in the data set with PC-3 cells is listed as “upregulated”. For the same molecule, the histone deacetylation entry with PC-3 cells is “inhibited”. Besides, the tubulin acetylation entry with PC-3 cells was “upregulated”.

These data come from patent publication US9598364B2, “Indolyl or indolinyl hydroxamate compounds” (Taipei Medical University, priority 2010, dated 2017).
